# Laboratory results: paper PMC10535741, “Styrylpyridinium Derivatives for Fluorescent Cell Imaging” (Pharmaceuticals, 2023)
# Experiments:
# BMDMs = assay: Nitric oxide production of pre-stained macrophages polarised to M1 phenotype (Griess test); format: cell-based, mouse; conditions: after 2 days activation with IFNγ and PAM3SCK4; 5-50 μM 6e
# Procedure: The impact of SP compound 6e on the BMDMs’ functional characteristics was also assessed by performing cell differentiation into the M1 phenotype in the presence of compound 6e. The BMDMs were treated with 5–50 μM compound 6e and the cell medium was replaced with a macrophage differentiation medium containing recombinant mouse interferon-gamma (IFNγ) and the TLR2/1 ligand PAM3SCK4 to ensure M1 polarisation. Activated cells express proinflammatory molecules (cytokines and chemokines), as well as nitric oxide (NO) as the main features of their proinflammatory M1-like macrophage phenotype. To verify the NO level in cell culture media, nitrites, as nitric oxide oxidation products, were measured by the standard Griess test. […]
# For polarisation of macrophages to the pro-inflammatory M1 phenotype, the BMDM cells stained in a 12-well plate were used. […] After two days of activation, the nitric oxide levels (as a main signal of M1 polarisation) were measured in cell supernatants of activated (M1) and non-activated (M0) cells. The amount of nitric oxide was determined via a nitric oxide assay kit (Cat. No. EMSNO; Invitrogen). Briefly, 50 µL of cell culture media was collected from each well, clarified by centrifugation, and used for NO quantification. The nitrite standards provided by the kit were used for standard curve generation and NO quantification. […]
# in vitro = conditions: mouse
# Procedure: In this study, we used murine bone-marrow-derived macrophages (BMDMs) to evaluate the staining potential of the 6e compound in primary immune cells. […] To assess toxicity, the BMDMs were stained with various concentrations (0.1–100 μM) of compound 6e, and after 24 h, cell viability was measured using the CCK-8 assay (Figure 5).
# To determine the cytotoxicity of the SP compound 6e, the cells were stained with various concentrations of the dye (0, 0.1, 1, 5, 10, and 100 μM). Briefly, 2 × 10^4 cells were plated in a 96-well plate in 100 μL of the medium. After 24 h, the cells were washed once and a solution of compound 6e in PBS was added to the cells. The cells were incubated in a humidified 5% CO2 incubator at 37 °C for 15–20 min. Then, the dye solution was replaced with medium. […] After 24 h, the medium was replaced with 10 μL of CCK-8 reagent in 100 μL of fresh medium. The cells were incubated in a humidified 5% CO2 incubator at 37 °C for 1–4 h. The absorbance at 450 nm was measured using a microplate spectrophotometer (BioTek Instruments, Winooski, VT, USA). Cell viability was calculated as a percentage of non-treated cell absorbance. IC50 values were calculated as the concentration at which 50% of the cells were viable.
# BHK-21 cells = format: cell-based, Syrian hamster; conditions: BHK-21, 24 h after staining
# Procedure: SP compound 6e was selected for fluorescent cell imaging analysis. First, the compound was used to label the BHK-21 cells that are widely used in molecular biology studies. Commercially available CellTracker™ Deep Red dye (Invitrogen) was used as a control because it has a similar emission range (ex/em: 630/660). The BHK-21 cells were incubated with fluorescent dyes to stain the cells, then seeded on a 24-well plate and cultured for 24 h. SP compound 6e was used at 25 μM concentration, providing a non-toxic effect on BHK-21 cells (Table S2, entry 5, Supplementary Materials). The Deep Red dye was used according to the manufacturer’s instructions.
# The day after staining, the cells were collected and washed several times with PBS buffer in order to evaluate the stability of the staining. The fluorescent signal was analysed by flow cytometry (Figure 3). […] However, only (61 ± 3)% of Deep Red stained cells were positive, whereas SP compound 6e ensured 99.9% positive cells. Moreover, the signal intensity (fluorescence shift from unstained cells) of cells stained with compound 6e was remarkably higher than for the Deep Red dye. The calculated stain index for SP compound 6e was (92 ± 19) before cell washing and (77 ± 15) after cell washing. However, in the case of Deep Red, the calculated stain index was (2.27 ± 0.07) before cell washing and (2.21 ± 0.07) after cell washing. High intensity usually facilitates flow cytometry data acquisition by enhancing the signal-to-background ratio and enabling optimal compensation in complex multicolour fluorescence analysis. […]
# When cells reached 90% confluency, they were stained with 25 μM compound 6e or 1 μM CellTracker™ Deep Red dye (Cat. No. C34565; Invitrogen) according to the manufacturer’s instructions. […] Stained cells were kept at 4 °C and analysed using a FACSAria BD Hardware flow cytometer with FACSDiva 6.1.3 software (BD Biosciences, San Jose, CA, USA). […] The data were analysed using FlowJo 10.3 software (FlowJo LLC, Ashland, OR, USA) and presented as the mean of three independent experiments. […]
smiles,measurement,setting,value
"CCCCCCCCCCCCCCCC[n+]1ccc(C=CC=Cc2cc3c4c(c2)CCCN4CCC3)cc1.[Br-] [Compound 6e, 1-hexadecyl-4-(4-(2,3,6,7-tetrahydro-1H,5H-pyrido[3,2,1-ij]quinolin-9-yl)buta-1,3-dien-1-yl)pyridin-1-ium bromide]",NO production of stained BMDMs,BMDMs,up to 21.5 µM
same,"viability at 24 h, 5 µM",in vitro,79.1 ± 1.2%
same,stain index after cell washing,BHK-21 cells; washed 3 times with PBS,77 ± 15
same,positive (stained) cells,BHK-21 cells; 25 μM 6e or 1 μM Deep Red,99.9%
same,stain index before cell washing,BHK-21 cells; 25 μM 6e or 1 μM Deep Red,92 ± 19
